| melting point [°C] | Compound |
| --- | --- |
| 187 to 188 | COC(=O)c1ccc(Cn2nc(CO)c3ccc(C(=O)NCC4CCCC4)cc32)c(OC)c1 |
| 143 to 146 | COc1cc(OCc2ccccn2)ccc1/C=C/c1cc(/C=C/c2ccccc2)[nH]n1 |
| 206 to 207 | COc1ccc(CNC(=O)c2cn3c(=O)n(Cc4ccc(Cl)c(Cl)c4)c(=O)cc3s2)cc1 |
| 148 | CCn1cnc2c(Nc3cccc(C(=O)OC)c3)nc(Cl)nc21 |
| 167 to 168 | COC(=O)C=Cc1ccc(OCc2nc(-c3ccccc3)oc2C)c(F)c1 |
| 153 to 154 | CC(CO)n1nnc2cc3c(=O)n(C(C)Cn4ncnn4)nnc3cc2c1=O (stereo not given) |
| 134 to 136 | COc1ccc(OCc2ccc(OCc3nc(-c4ccccc4)oc3C)cc2)c(CC(=O)O)c1 |
| 143 | CCNc1cc(C)c(S(=O)(=O)C[N+](=O)[O-])c(C)c1 |
| 129 to 136 | Cc1cccc(C2=C(c3ccc(F)c(-c4cn[nH]c4)c3)NN(C(C)C)C2)n1 |
| 153 to 155 | CCCCn1c(=O)n(O)c(=O)c2cc(F)c(N3CCCC3)nc21 |
| 214 to 217 | COc1ccccc1C(=O)c1[nH]c2cc(Cl)ccc2c1CC(=O)O |
| 161 to 162 | CCN(Cc1sc(-c2ccc(C(F)(F)F)cc2)nc1C)c1cc(C)c(OCC(=O)O)c(C)c1 |
| 87 to 92 | CS(=O)(=O)Nc1ccc2c(c1)C(=O)C(Br)CC2 (stereo not given) |
| 101 to 104 | Nc1ccnc(CCCCCN2C(=O)c3ccccc3C2=O)n1 |
| 187 to 190 | Cc1nc(-c2cnc3[nH]cc(C(=O)N[C@@H](C(=O)N4CC(C#N)C4)C(C)(C)C)c3n2)cn1-c1cc(F)cc(F)c1 |
| 168 to 170 | O=C1COc2ccc(C3=Nc4ccccc4SC3c3ccccn3)cc2N1 (stereo not given) |

| melting point [°C] | Compound |
| --- | --- |
| 160 to 162 | CCS(=O)(=O)N(C)C1CC(C)(C)Oc2ccc(O)cc21 (stereo not given) |
| 294 | CC(C)(C)c1ccc(-c2cc3ccc(C(=O)O)cc3o2)cc1 |
| 70 to 72 | COc1c(N2CC[C@@H](C(C)(C)NC(=O)OC(C)(C)C)C2)c(F)cc2c(=O)c(C(=O)O)cn(C3CC3)c12 |
| 148 to 150 | CCCn1nc2c(N)nc3ccccc3c2c1CC(C)(C)NC(=O)c1ccncc1 |
| 134 to 137 | Cn1nc(-c2cc([N+](=O)[O-])c(Cl)cc2Cl)cc1OC(F)F |
| 167 | Cc1c(CO)nc2n1CCc1ccccc1C2=C1CCN(C)CC1 |
| 146 | CC1(C)C=C(n2cncn2)c2cccc(OCc3c(Cl)ccc(S(=O)(=O)N4CCC[C@H]4C(=O)O)c3Cl)c2N1 |
| 176 to 177 | O=c1[nH]c(N2CCN(Cc3ccccc3)C(CO)C2)cc2ccccc12 (stereo not given) |
| 90 to 93 | O=c1c2cccc3c2n(c(=O)n1CCO)-c1cc(C(F)(F)F)ccc1S3 |
| 197 to 198 | O=C(OCC(O)CO)c1cc(F)ccc1Nc1ccnc2c(C(F)(F)F)cccc12 (stereo not given) |
| > 220 | Cc1c(=O)n(Cc2ccc(C#N)cc2)c(=O)n2cc(C(=O)NCc3ccc(F)cc3)sc12 |
| 109 to 111 | Cn1cc(C2=C(c3c4n(c5ccccc35)CCC(CO)CC4)C(=O)NC2=O)c2ccccc21 (stereo not given) |
| 204 to 205 | CCC(C(C)=CC(CNC(=O)c1cnc2nc(C)ccc2c1O)=NO)[N+](=O)[O-] (stereo not given) |
| 111 to 114 | CCON=C(CC)C1=C(O)CC(c2ccc(NC=O)cc2)CC1=O (stereo not given) |
| 192 to 195 | C=CCc1c(O)ccc2c(C)cc(=O)oc12 |
| 185 to 186 | Cc1ncn(Cc2ccc(N)cc2C(F)(F)F)c1C |

The next lines start with the compound.

| Compound | melting point [°C] |
| --- | --- |
| COC(=C(C#N)C(=O)Nc1ccccc1)c1cccn1C | 121 to 122 |
| FC(F)(F)c1ccc(-c2cc(C(F)(F)F)n3ncc(-c4nc(-c5cccnc5)no4)c3n2)cc1 | 199 |
| C#CCOc1ncc(Cl)cc1OC | 62 to 64 |
| N#CN=CNCc1cc(Cl)nc(Cl)c1 | 160 |
| CC(C)(C)OC(=O)NC(Cc1ccccc1)C(O)CNCC(O)C(Cc1cccc(OCc2ccccc2)c1)NC(=O)OC(C)(C)C (stereo not given) | 125 to 145 |
| COC(=O)c1cccc(C=O)c1O | 82 to 84 |
| CC(C)C[C@H](NC(=O)[C@H](Cc1ccccc1)NC(=O)C1CCCCC1S)C(=O)O (stereo not given in full) | 180 to 183 |
| O=C(c1ccsc1)c1cccc2ccccc12 | 50 |
| CC(C)(C)S(=O)(=O)c1ccccc1NC(=O)N[C@@H](Cc1ccc(NC(=O)c2c(Cl)cncc2Cl)cc1)C(=O)O | 228 |
| CO/N=C(\C)c1cccc(Nc2c3ccccc3nc3occc23)c1 | 137 to 138 |
| COC(=O)[C@H](Cc1ccccc1)NC(=O)[C@H](Cc1ccccc1)NC(=O)[C@H](CC(N)=O)NC(=O)OC(C)(C)C | 192 to 194 |
| Cc1cc(-n2ccnc2)c2cccc(OCc3c(Cl)ccc(S(=O)(=O)N4CCC[C@H]4C(=O)NCCc4ccccn4)c3Cl)c2n1 | 82 |
| CC(C)(C)OC(=O)C1C(C=CC(=O)O)C1(C)C (stereo not given) | 94 |
| Cc1cc(C(O)(C(F)(F)F)C(F)(F)F)cc(C)c1SCC(=O)O | 133 to 135 |
| CCOC(=O)C1CCN(CC2(C)Cc3c(C)c(N)c(C)c(C)c3O2)CC1 (stereo not given) | 74 to 76 |
| CCCCCCCCCCc1ccc(C[N+](=O)[O-])cc1 | 50 |
| Clc1cccc2c1Oc1ccccc1N=C2N1CCN2CCC[C@H]2C1 | 150 to 151 |
| Cc1cc(C(C)(C)C(=O)O)ccc1O | 145 to 146 |
| CCC12CCC3C4CCC(=O)C=C4CCC3C1CCC2OC1CCCCO1 (stereo not given) | 148 to 152 |

| Compound | melting point [°C] |
| --- | --- |
| CCCCCCCCCCCCCCCCC(C)c1cccc2c1OC(=O)C2c1ccccc1 (stereo not given) | 60 to 62 |
| O=C(Nc1ccc(C[C@H](NS(=O)(=O)N2CCCCCC2)C(=O)O)cc1)c1c(Cl)cncc1Cl | 185 |
| CCCCCCCCCC(=O)Nc1ccc(S(=O)(=O)Nc2nnc(C(C)(C)C)s2)cc1 | 156 to 157 |
| COc1ccc(C(NC(C)=O)C(=O)c2ccc(Cl)cc2)cc1 (stereo not given) | 140 |
| COc1c(C(=O)O)ccc(Cl)c1SC | 121 to 123 |
| CC(C)(CC(F)(F)F)NC(=N)NC#N | 153 |
| CCOC(=O)C1=C(C)NC(C)=C(C(=O)OCC)C1c1cc([N+](=O)[O-])ccc1OCCCCNCC(O)COc1ccccc1 (stereo not given) | 141 to 143 |
| CC1(C)CC(N2CCCC2)c2sccc2O1 (stereo not given) | 49 to 50 |
| CCC(Sc1cc2ccccc2n1C)(C(=O)OC)c1ccccc1 (stereo not given) | 90 to 91 |
| N#Cc1ccc(C(=O)NC(=S)NC2CCCCC2)cc1 | 136 to 137 |
| CCCCCCCCCCCCn1c2cc(Cl)ccc2c2ccc(Cl)cc21 | 70 to 71 |
| COc1ccc(CCN2CCc3cc(OC[C@H]4CO[C@](Cn5ccnc5)(c5ccc(Cl)cc5Cl)O4)ccc3C2)cc1 (racemic) | 121 to 122 |
| CC1(C)C2CCC1(C)C(O)(c1ccccn1)C2 (stereo not given) | 60 to 61 |
| O=C1c2ccccc2C(=O)N1Cc1ccc(OC(F)(F)F)cc1 | 82.1 to 83.6 |
| COC(=O)C=CCC1C(=O)N2C(C(=O)OCC(Cl)(Cl)Cl)=CCC12 (stereo not given) | 101 to 102 |
| COc1ccc(C(=O)Nc2ccccc2)cc1Nc1ccc(C)cc1 | 187 to 188 |
| CCOC(=O)C12CCC(=O)N1CC(=O)N2 (stereo not given) | 116 |
| NCCOc1ccc(/C(=C(\c2ccccc2)C(F)(F)F)c2ccccc2)cc1 | 71 to 76 |
| c1ccc([C@H]2OC2(c2ccccc2)c2ccccc2)cc1 | 91 to 92 |
